Experimental data reported in PubChem BioAssay (NCI).
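Five compound concentrations were applied to cells in 96-well plates for 48 hours; endpoints were derived by simple linear interpolation of the resulting dose-response curve. At the TGI there is no net growth.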

Key:
Test in all cases: growth of human tumour cells (NCI), 48 h
UACC-62 melanoma = test system: UACC-62 melanoma
PC-3 prostate = test system: PC-3 prostate
OVCAR-5 ovarian = test system: OVCAR-5 ovarian
SN12C renal = test system: SN12C renal
SK-MEL-28 melanoma = test system: SK-MEL-28 melanoma
RXF 393 renal = test system: RXF 393 renal
SF-295 CNS = test system: SF-295 CNS
HCC-2998 colon = test system: HCC-2998 colon
NCI-H23 lung = test system: NCI-H23 lung
SF-268 CNS = test system: SF-268 CNS
MDA-N = test system: MDA-N
SNB-19 CNS = test system: SNB-19 CNS
MDA-MB-231 breast = test system: MDA-MB-231 breast
OVCAR-4 ovarian = test system: OVCAR-4 ovarian

SMILES | TGI (UACC-62 melanoma) | TGI (PC-3 prostate) | TGI (OVCAR-5 ovarian) | TGI (SN12C renal) | TGI (SK-MEL-28 melanoma) | TGI (RXF 393 renal) | TGI (SF-295 CNS) | TGI (HCC-2998 colon) | TGI (NCI-H23 lung) | TGI (SF-268 CNS) | TGI (MDA-N) | TGI (SNB-19 CNS) | TGI (MDA-MB-231 breast) | TGI (OVCAR-4 ovarian)
COc1cc(/C=N/NC2=NCCCCN2)ccc1O | > 100 µM | > 100 µM | > 100 µM | > 100 µM | > 100 µM | > 100 µM | > 100 µM | > 100 µM | > 100 µM | > 100 µM | > 100 µM | > 100 µM | > 100 µM | > 100 µM
O=C1CC2SC(COCc3ccccc3)(CCN2Cc2ccccc2)C1 (stereo not given) | > 100 µM | > 100 µM | > 100 µM | > 100 µM | > 100 µM | > 100 µM | > 100 µM | > 100 µM | > 100 µM | > 100 µM | > 100 µM | > 100 µM | > 100 µM | > 100 µM
CCOC(=O)C(Cc1ccc(N(CCCl)CCCl)cc1)NC(=O)CCCN1C(=O)CN=C(c2ccccc2)c2cc(Cl)ccc21 (stereo not given) | 5.95 µM | > 100 µM | > 100 µM | 14.5 µM | 8.35 µM | 8.77 µM | > 100 µM | > 49.7 µM | > 39 µM | 71.5 µM | 19.1 µM | > 100 µM | 78.6 µM | 98.3 µM
COc1ccc(C(=O)/C=C/c2ccc(OCC(=N)N)cc2)cc1 | 29 µM | 27.9 µM | 83.9 µM | 26.7 µM | 28.6 µM | 28.3 µM | 30 µM | 30.4 µM | 43.3 µM | 35.6 µM | 31.4 µM | 29.2 µM | 27.8 µM | 30.5 µM
O=C1C=CC2(C=C1)C[C@H](NC(=O)OCc1ccccc1)C(=O)O2 | 31.9 µM | 29.9 µM | 38.2 µM | 32.7 µM | 27 µM | 24.9 µM | 49.5 µM | 40.8 µM | 32.5 µM | 32.3 µM | 28.9 µM | > 100 µM | 32.6 µM | 39.6 µM
CC(C)[C@@H](C)[C@@]1(C)C[C@@H]1[C@@H](C)[C@H]1CC[C@@H]([C@@H]2CC=C3C[C@@H](O)CC[C@]3(C)C2=O)[C@]1(C)CCO | 27.7 µM | 21.8 µM | 23.8 µM | 25.5 µM | 20.1 µM | 11.5 µM | 21.2 µM | 16.4 µM | 27.2 µM | 30.3 µM | 26.1 µM | 25.1 µM | 28 µM | 24.8 µM
COc1ccc(/C(=N\Nc2ccccn2)c2ccccn2)cc1 | 6.44 µM | > 100 µM | 98.9 µM | > 100 µM | > 53 µM | 36.6 µM | 3.54 µM | 35.9 µM | 9.55 µM | 13.1 µM | > 100 µM | > 63.9 µM | > 74.9 µM | 42.9 µM
Cn1c(N=P(c2ccccc2)(c2ccccc2)c2ccccc2)c([N+](=O)[O-])c(=O)n(C)c1=O | > 100 µM | > 100 µM | > 100 µM | > 100 µM | – | > 100 µM | > 100 µM | > 100 µM | > 100 µM | > 100 µM | > 100 µM | > 100 µM | > 100 µM | > 100 µM
CCOC(=O)c1cc(C2CCN(Cc3ccccc3)C2=S)c(C(=O)C=[N+]=[N-])[nH]1 (stereo not given) | 50.7 µM | > 100 µM | > 100 µM | – | 51.5 µM | 75.5 µM | 66.8 µM | > 100 µM | 53.4 µM | 73.9 µM | 49.4 µM | > 100 µM | > 100 µM | > 100 µM
COc1cc2ccc1OCc1cccc(n1)COc1ccc(cc1OC)C=NCCNCCN=C2 | – | > 100 µM | > 100 µM | > 100 µM | > 100 µM | > 100 µM | > 100 µM | > 100 µM | > 100 µM | > 100 µM | > 100 µM | > 100 µM | > 100 µM | > 100 µM
O=C1c2ccccc2C(=O)c2c(NCCCN3CCOCC3)ccc(NCCCN3CCOCC3)c21 | 6.05 µM | 12.9 µM | 38.5 µM | 17.2 µM | 19.8 µM | 27.1 µM | 11.4 µM | 27 µM | 17.6 µM | 20.9 µM | 13.6 µM | 41 µM | 13.8 µM | > 100 µM
N#Cc1c(N2CCN(c3ccc([N+](=O)[O-])cc3)CC2)[n+](=O)c2ccccc2n1[O-] | > 100 µM | > 100 µM | > 100 µM | > 100 µM | > 100 µM | > 100 µM | > 100 µM | > 100 µM | > 100 µM | 0.921 µM | > 100 µM | > 100 µM | > 100 µM | > 100 µM
